Measurements published in ChEMBL document CHEMBL1154005 (J Med Chem, 2009).
Active and inactive are the calls of the source.

Tests used:
Cytochrome P450 2C9 = Cytochrome P450 2C9 (Homo sapiens, UniProt P11712); assay: Inhibition of CYP2C9 in human liver microsomes using diclofenac substrate; type: ADME, Microsome
[1] = Oral bioavailability in C57BL/6 mouse at 2 mg/kg; type: ADME, organism-based; settings: in vivo
[2] = Volume of distribution at steady state in C57BL/6 mouse at 1 mg/kg, iv or 2 mg/kg, po; type: ADME, organism-based; settings: in vivo, read-out: Vdss
[3] = Plasma clearance in C57BL/6 mouse at 1 mg/kg, iv or 2 mg/kg, po; type: ADME, organism-based
Cytochrome P450 2C8 = molecular target: T1, Cytochrome P450 2C8 (Homo sapiens, UniProt P10632); assay: Inhibition of CYP2C8 in human liver microsomes using montelukast substrate; type: ADME, Microsome
T1 sequence (P10632 whole entry): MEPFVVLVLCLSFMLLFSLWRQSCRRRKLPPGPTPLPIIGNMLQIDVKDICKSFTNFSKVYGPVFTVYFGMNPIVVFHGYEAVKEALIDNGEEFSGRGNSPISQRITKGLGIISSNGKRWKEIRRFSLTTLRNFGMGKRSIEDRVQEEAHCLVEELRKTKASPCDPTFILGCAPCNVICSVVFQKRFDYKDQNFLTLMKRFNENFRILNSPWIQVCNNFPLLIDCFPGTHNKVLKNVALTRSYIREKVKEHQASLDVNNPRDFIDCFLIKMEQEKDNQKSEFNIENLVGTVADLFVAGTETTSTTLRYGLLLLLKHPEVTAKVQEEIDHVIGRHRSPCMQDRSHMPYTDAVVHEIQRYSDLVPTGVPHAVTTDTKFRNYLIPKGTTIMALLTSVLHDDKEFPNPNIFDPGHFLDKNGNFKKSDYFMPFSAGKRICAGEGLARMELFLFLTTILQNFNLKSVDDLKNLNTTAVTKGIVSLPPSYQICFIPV

[4] = Half life in C57BL/6 mouse at 1 mg/kg, iv or 2 mg/kg, po; type: ADME, organism-based; settings: in vivo
[5] = Cmax in C57BL/6 mouse at 2 mg/kg, po; type: ADME, organism-based; design: dose 2 mg/kg, route oral; settings: in vivo
Adipocyte = assay: Inhibition of lipolysis in IBMX-stimulated human adipocytes assessed as glycerol release after 5 hrs; type: functional, cell-based
Rattus norvegicus [6] = assay: Toxicity in Sprague-Dawley rat assessed as plasma concentration at threshold dose for vasodilation at 100 mg/kg, sc; type: organism-based; design: dose 100 mg/kg, route subcutaneous; settings: in vivo, read-out: Activity
[7] = Therapeutic index, ratio of plasma concentration at threshold dose for vasodilation to IC50 for free fatty acid reduction in Sprague-Dawley rat; type: cell-free; settings: read-out: TI
Rattus norvegicus [8] = assay: Reduction in free fatty acid level in 18 hrs fasted po dosed Sprague-Dawley rat; type: functional, organism-based
Rattus norvegicus [9] = assay: Reduction in free fatty acid level in 18 hrs fasted Sprague-Dawley rat at 100 mg/kg, po; type: functional, organism-based; design: dose 100 mg/kg
Rattus norvegicus [10] = assay: Toxicity in Sprague-Dawley rat assessed as induction of intense flushing by measuring blood perfusion change by Doppler flometry at 100 mg/kg, sc; type: organism-based; design: dose 100 mg/kg, route subcutaneous; settings: in vivo
Rattus norvegicus [11] = assay: Plasma concentration in Sprague-Dawley rat at 100 mg/kg, sc; type: ADME, organism-based; design: dose 100 mg/kg, route subcutaneous; settings: in vivo
[12] = molecular target: Hydroxycarboxylic acid receptor 2 (Rattus norvegicus, UniProt Q80Z39); assay: Agonist activity at rat GPR109A expressed by [35S]GTPgammaS binding assay; type: functional
Rattus norvegicus [13] = assay: Toxicity in Sprague-Dawley rat assessed as plasma concentration at threshold dose for vasodilation at 1 mg/kg, sc; settings: read-out: Activity, in vivo
Rattus norvegicus [14] = assay: Plasma concentration in Sprague-Dawley rat at 1 mg/kg, sc; settings: read-out: Cp, in vivo

Cytochrome P450 2C9, sequence (P11712 whole entry): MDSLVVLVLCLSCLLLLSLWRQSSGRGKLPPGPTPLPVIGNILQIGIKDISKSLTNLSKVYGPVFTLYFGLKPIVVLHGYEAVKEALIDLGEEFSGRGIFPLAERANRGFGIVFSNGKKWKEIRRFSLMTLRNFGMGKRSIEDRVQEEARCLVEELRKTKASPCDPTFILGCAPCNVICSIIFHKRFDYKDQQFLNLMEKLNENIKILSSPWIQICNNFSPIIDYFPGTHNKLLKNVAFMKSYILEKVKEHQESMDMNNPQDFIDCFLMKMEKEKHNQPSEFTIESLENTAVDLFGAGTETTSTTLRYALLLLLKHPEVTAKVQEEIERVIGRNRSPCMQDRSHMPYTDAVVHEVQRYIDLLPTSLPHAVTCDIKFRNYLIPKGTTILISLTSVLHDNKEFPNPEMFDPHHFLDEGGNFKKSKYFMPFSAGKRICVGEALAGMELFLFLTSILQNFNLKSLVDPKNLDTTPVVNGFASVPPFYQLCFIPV
Hydroxycarboxylic acid receptor 2, sequence (Q80Z39 whole entry): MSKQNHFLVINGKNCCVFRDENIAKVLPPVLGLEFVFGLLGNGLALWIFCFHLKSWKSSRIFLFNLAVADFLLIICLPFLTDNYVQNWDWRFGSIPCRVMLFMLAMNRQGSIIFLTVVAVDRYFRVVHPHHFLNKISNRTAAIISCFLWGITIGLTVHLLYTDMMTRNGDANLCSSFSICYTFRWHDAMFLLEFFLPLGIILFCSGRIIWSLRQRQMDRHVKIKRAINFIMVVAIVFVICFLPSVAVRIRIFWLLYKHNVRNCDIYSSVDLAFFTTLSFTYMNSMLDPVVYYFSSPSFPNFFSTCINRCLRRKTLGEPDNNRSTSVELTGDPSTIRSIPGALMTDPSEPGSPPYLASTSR

SMILES	IC50 (Cytochrome P450 2C9)	bioavailability [1]	Vd [2]	clearance [3]	IC50 (Cytochrome P450 2C8)	half-life [4]	Cmax [5]	IC50 (Adipocyte)	also measured
O=C(CCc1noc2c1CCc1cc(O)ccc1-2)NC1=C(C(=O)O)CCC1	47 µM	7.5%	0.2 L/kg	4.1 mL/min/kg	47 µM	114 min	1830 nM		
O=C(CCc1noc2c1ccc1cc(O)ccc12)Nc1ccccc1C(=O)O	0.99 µM							150 nM	
O=C(CCc1cnn2c1ccc1cc(O)ccc12)NC1=C(C(=O)O)CCCC1	19 µM							60 nM	
Cn1nc(CCC(=O)Nc2ccccc2C(=O)O)c2c1-c1ccc(O)cc1CC2	17 µM								
O=C(CCc1ccc2c(ccc3[nH]ncc32)c1)Nc1ccccc1C(=O)O	< 0.14 µM	24%	0.19 L/kg	0.6 mL/min/kg		210 min	3900 nM		
O=C(CCc1cnn2c1CCc1cc(O)ccc1-2)Nc1ccccc1C(=O)O	18 µM	17%	1.8 L/kg	12 mL/min/kg	11 µM	174 min	350 nM	110 nM	concentration (Rattus norvegicus [6]): 500 µM; selectivity ratio [7]: 8; IC50 (Rattus norvegicus [8]): 60 µM; Activity (Rattus norvegicus [9]): Active; Activity (Rattus norvegicus [10]): Not Active; concentration (Rattus norvegicus [11]): 500 µM; EC50 [12]: 2700 nM
O=C(CCc1noc2c1ccc1cc(O)ccc12)NC1=C(C(=O)O)CCCC1	12 µM								
O=C(CCc1cn2c(n1)sc1cc(O)ccc12)Nc1ccccc1C(=O)O								200 nM	
O=C(CCc1cn2c(n1)sc1cc(O)ccc12)NC1=C(C(=O)O)CCC1	12 µM								
O=C(CCc1[nH]nc2c1CCc1cc(O)ccc1-2)Nc1ccccc1C(=O)O	26 µM	1.4%	0.44 L/kg	2.4 mL/min/kg	23 µM	126 min	73 nM	280 nM	
O=C(CCc1noc2c1CCc1cc(O)ccc1-2)NC1=C(C(=O)O)CCCC1	11 µM				44 µM				
O=C(CCc1cn2c(n1)sc1cc(O)ccc12)NC1=C(C(=O)O)CCCC1	12 µM	25%	0.32 L/kg	0.9 mL/min/kg		264 min	3800 nM	2600 nM	
O=C(O)c1cccnc1 [NIACIN]								70 nM	IC50 (Rattus norvegicus [8]): 5 µM; concentration (Rattus norvegicus [13]): 7.6 µM; concentration (Rattus norvegicus [14]): 7.6 µM

Continued by falling IC50 (Cytochrome P450 2C9), values first:

IC50 (Cytochrome P450 2C9)	bioavailability [1]	Vd [2]	clearance [3]	IC50 (Cytochrome P450 2C8)	half-life [4]	Cmax [5]	IC50 (Adipocyte)	SMILES	also measured
9.2 µM				5.8 µM			60 nM	O=C(CCc1[nH]nc2c1ccc1cc(O)ccc12)Nc1ccccc1C(=O)O	
8.5 µM				20 µM				O=C(CCc1noc2c1Cc1cc(O)ccc1-2)Nc1ccccc1C(=O)O	
4.7 µM	10%	0.26 L/kg	1.4 mL/min/kg		138 min	1260 nM		Cn1c(=O)c2cc(O)ccc2c2ccc(CCC(=O)Nc3ccccc3C(=O)O)cc21	
4.4 µM								O=C(CCc1cn2c(n1)sc1ccccc12)Nc1ccccc1C(=O)O	
2.2 µM	8.2%	1.1 L/kg	9.7 mL/min/kg	5.9 µM	108 min	620 nM		O=C(CCc1noc2c1CCc1cc(O)ccc1-2)Nc1ccccc1C(=O)O	
2 µM								O=C(CCc1noc2c1ccc1c(F)c(O)ccc12)NC1=C(C(=O)O)CCCC1	
1.5 µM	6%	0.95 L/kg	7 mL/min/kg		102 min	170 nM	20 nM	O=C(CCc1nnn2c1ccc1cc(O)ccc12)Nc1ccccc1C(=O)O	
1.5 µM								O=C(CCc1noc2c1ccc1c(Cl)c(O)ccc12)NC1=C(C(=O)O)CCCC1	
